Assay: Dose-response in microfluidic chip device: change in chip pressure (intraocular pressure model) after treatment of bovine vitreous humor
Details: 12.5% homogenized BVH in PBS incubated with compound at 37° C. for 1 hour; 7 ul injected; relative change in chip pressure recorded for 50 min; half-maximal response; read-out: EC50 for treatment of bovine vitreous humor (glaucoma model)
Experimental: The compound bivalirudin TFA was tested in bovine vitreous humor (BVH) in a microfluidic chip device. A solution of 25% homogenized BVH in PBS buffer was prepared and diluted with an equal amount of a solution of the compound, so that the total BVH concentration was 12.5%. The sample was vortexed and incubated at 37° C. for 1 hour. A control of either PBS buffer or PBS with 10% ethanol or DMSO was used and incubated with BVH under the same conditions.
The test compound-BVH solution was introduced into the reservoir of the microfluidic chip device and flow rate and pressure change were recorded. Various concentrations of the compound were tested for effects on the treatment of bovine vitreous humor. 7 ul of each test solution was injected into the microfluidic chip through a sample injector. Recording of the flow rate and pressure change was continued for 50 additional minutes after the sample injection. The relative change in chip pressure for the entire course of the experiment was obtained.
The EC50 value was taken as the point on the x-axis at which the logarithmic function of the micromolar concentration of the compound produced half-maximal response. […] The response was calculated by taking the absolute difference between the control and test value for each concentration. […]

Substance | EC50 [nM]
bivalirudin TFA | 1.2
polymyxin B sulfate | 4.3

From patent publication US20230090884A1, “DEVICE AND METHODS FOR ISOLATING EXTRACELLULAR MATRIX BODIES” (AUFBAU MEDICAL INNOVATIONS LIMITED, priority 2020, published 2023)
